Test results taken from US9999603B2, “Compositions and methods including leelamine and arachidonyl trifluoromethyl ketone relating to treatment of cancer” (The Penn State Research Foundation, priority 2013, dated 2018).

Tests used:
Assay type in all cases: cell-based, human
[1] = system: UACC 903 melanoma cells; assay: MTS cell viability assay, UACC 903 melanoma cells; details: free drug in DMSO, 24 hours treatment, read-out: half-maximal inhibitory concentration (IC50), cell viability
Protocol: (§1) Human fibroblast FF2441 cells and metastatic melanoma cell lines UACC 903 and 1205 Lu were maintained in DMEM (Invitrogen), supplemented with 10% FBS (Hyclone). Cell lines were maintained in a 37° C. humidified 5% CO2 atmosphere incubator and periodically monitored for phenotypic and genotypic characteristics, and for tumorigenic potential.
(§2) Viability of fibroblast and melanoma cells (UACC 903 and 1205 Lu) following treatment with ATK, leelamine, nanolipoATK, and nanolipoATK-999 was measured by MTS assay (Promega, Madison, Wis.). Briefly, 5×10^3 melanoma or fibroblast (FF2441) cells were plated per well in 100 μL of media and grown in 96-well plates for 48 hours. Cells were then treated with ATK alone, leelamine alone, nanolipoATK, nanolipolee, or nanoleelATK-999 for 24 hours before measuring cell viability.
(§3) IC50 values were calculated using Prism 4.0 GraphPad Software. Calculsyn software was used to evaluate synergy.
(§4) The melanoma cell lines UACC 903 and 1205 Lu, and normal human fibroblast cells FF2441, were treated with 1 μM, 1.5 μM, 2 μM, 2.5 μM, 3 μM, 3.5 μM, 4 μM, 4.5 μM, or 5 μM leelamine in DMSO. […] IC50 values were calculated using GraphPad Prism software.
(§5) The melanoma cell lines UACC 903 and 1205 Lu were treated with 15 μM, 20 μM, 25 μM, 30 μM, 35 μM, 40 μM, 45 μM, 50 μM, or 55 μM ATK in DMSO. […] IC50 values were calculated using GraphPad Prism software.

[2] = system: 1205 Lu melanoma cells; assay: MTS cell viability assay, 1205 Lu melanoma cells; details: free drug in DMSO, 24 hours treatment, read-out: half-maximal inhibitory concentration (IC50), cell viability
Protocol: as §1, §2, §3, §4, §5

[3] = system: fibroblast cell line FF2441; assay: MTS cell viability assay, normal fibroblasts FF2441; details: 1-5 μM leelamine in DMSO, 24 hours
Protocol: as §1, §2
The melanoma cell lines UACC 903 and 1205 Lu, and normal human fibroblast cells FF2441, were treated with 1 μM, 1.5 μM, 2 μM, 2.5 μM, 3 μM, 3.5 μM, 4 μM, 4.5 μM, or 5 μM leelamine in DMSO. Cells were maintained in DMEM supplemented with 10% FBS and L-glutamine. After 24 hours of treatment, an MTS assay was performed to determine the fractional cell viability relative to the DMSO control. IC50 values were calculated using GraphPad Prism software.

Q: With CC(C)c1ccc2c(c1)CC[C@H]1[C@](C)(CN)CCC[C@]21C [leelamine, (1R,4aS,10aR)-1,2,3,4,4a,9,10,10a-octahydro-1-,4a-dimethyl-7-(1-methylethyl)-1-phenanthrenemethanamine] as the molecule, how does the IC50 [1] read?
A: The IC50 was 2.8 µM.

Q: What about the IC50 [2] of the same molecule?
A: Its IC50 is 3.8 µM.

Q: What about the “killing of normal fibroblast cells” value [3] of the same molecule?
A: Its value is “did not kill”.
